Measured values from ChEMBL document CHEMBL5241069, “A key review on oxadiazole analogs as potential methicillin-resistant Staphylococcus aureus (MRSA) activity: Structure-activity relationship studies” (Eur J Med Chem, 2021).
Values after ≈ are worked out from the molar mass of the structure shown.

Tests used:
[1] = test system: Staphylococcus aureus; assay: Antibacterial activity against methicillin resistant Staphylococcus aureus assessed as inhibition zone by CLSI protocol based agar disc diffusion method; assay type: functional
[2] = test system: Staphylococcus aureus; assay: Antimicrobial activity against methicillin resistant Staphylococcus aureus ATCC 25923 assessed as inhibition of bacterial growth by agar diffusion cup plate method; assay type: functional
[3] = test system: Staphylococcus aureus; assay: Antimicrobial activity against methicillin resistant Staphylococcus aureus ATCC 43300 assessed as inhibition of bacterial growth incubated for 18 to 24 hrs by broth microdilution method; assay type: functional; conditions: time 18-24 hrs
[4] = test system: Staphylococcus aureus; assay: Antimicrobial activity against methicillin resistant Staphylococcus aureus USA300 assessed as inhibition of bacterial growth incubated for 16 to 20 hrs by CLSI protocol based method; assay type: functional; conditions: time 16-20 hrs
[5] = test system: Staphylococcus aureus; assay: Antimicrobial activity against Staphylococcus aureus Newman assessed as inhibition of bacterial growth incubated for 16 to 20 hrs by CLSI protocol based method; assay type: functional; conditions: time 16-20 hrs
[6] = test system: Staphylococcus aureus; assay: Antimicrobial activity against methicillin resistant Staphylococcus aureus A252 assessed as inhibition of bacterial growth incubated for 16 to 20 hrs by CLSI protocol based method; assay type: functional; conditions: time 16-20 hrs
[7] = test system: Staphylococcus aureus; assay: Antibacterial activity against methicillin resistant Staphylococcus aureus MTCC 84 incubated for 24 hrs by serial dilution method; assay type: functional
[8] = test system: Staphylococcus aureus; assay: Potency index, ratio of chloramphenicol MIC to test compound MIC for antibacterial activity against methicillin resistant Staphylococcus aureus ATCC 43300 assessed as inhibition of bacterial growth incubated for 24 to 48 hrs by spectrophotometric analysis; assay type: functional; conditions: time 24-48 hrs
[9] = test system: Staphylococcus aureus; assay: Potency index, ratio of ciprofloxacin MIC to test compound MIC for antibacterial activity against methicillin resistant Staphylococcus aureus ATCC 43300 assessed as inhibition of bacterial growth incubated for 24 to 48 hrs by spectrophotometric analysis; assay type: functional; conditions: time 24-48 hrs
[10] = test system: Staphylococcus aureus; assay: Antibacterial activity against methicillin resistant Staphylococcus aureus ATCC 43300 assessed as inhibition of bacterial growth incubated for 24 to 48 hrs by spectrophotometric analysis; assay type: functional; conditions: time 24-48 hrs
[11] = test system: Staphylococcus aureus; assay: Antibacterial activity methicillin resistant Staphylococcus aureus NRS 387 (USA 800) assessed as inhibition of bacterial growth by broth microdilution method; assay type: functional
[12] = test system: Staphylococcus aureus; assay: Antibacterial activity methicillin resistant Staphylococcus aureus NRS 119 assessed as inhibition of bacterial growth by broth microdilution method; assay type: functional; conditions: NRS119
[13] = test system: Staphylococcus aureus; assay: Antibacterial activity methicillin resistant Staphylococcus aureus NRS 194 assessed as inhibition of bacterial growth by broth microdilution method; assay type: functional
[14] = test system: Staphylococcus aureus; assay: Antibacterial activity methicillin resistant Staphylococcus aureus NRS 484 (USA 1100) assessed as inhibition of bacterial growth by broth microdilution method; assay type: functional
[15] = Half-life in rat at 25 mg/kg, po; assay type: ADME, organism-based; conditions: in vivo
[16] = test system: Staphylococcus aureus; assay: Antibacterial activity methicillin resistant Staphylococcus aureus NRS 108 assessed as inhibition of bacterial growth by broth microdilution method; assay type: functional
[17] = test system: Staphylococcus aureus; assay: Antibacterial activity methicillin resistant Staphylococcus aureus NRS 483 (USA 1000) assessed as inhibition of bacterial growth by broth microdilution method; assay type: functional
[18] = test system: Staphylococcus aureus; assay: Antibacterial activity methicillin resistant Staphylococcus aureus NRS 382 (USA 100) assessed as inhibition of bacterial growth by broth microdilution method; assay type: functional
[19] = test system: Staphylococcus aureus; assay: Antibiofilm activity against methicillin resistant Staphylococcus aureus assessed as reduction in biofilm formation at 2 times of MIC by microtiter plate biofilm formation assay; assay type: functional; parameters: scale not given: the % may be the effect or the level left
[20] = test system: Staphylococcus aureus; assay: Antibacterial activity methicillin resistant Staphylococcus aureus NRS 383 (USA 200) assessed as inhibition of bacterial growth by broth microdilution method; assay type: functional
[21] = test system: Staphylococcus aureus; assay: Antibacterial activity methicillin resistant Staphylococcus aureus NRS384 (USA 300) assessed as inhibition of bacterial growth by broth microdilution method; assay type: functional
[22] = test system: Staphylococcus aureus; assay: Antibacterial activity methicillin resistant Staphylococcus aureus NRS 386 (USA 700) assessed as inhibition of bacterial growth by broth microdilution method; assay type: functional
[23] = test system: Staphylococcus aureus; assay: Antibacterial activity methicillin resistant Staphylococcus aureus NRS123 (USA 400) assessed as inhibition of bacterial growth by broth microdilution method; assay type: functional
[24] = test system: Staphylococcus aureus; assay: Antibacterial activity methicillin resistant Staphylococcus aureus NRS 385 (USA 500) assessed as inhibition of bacterial growth by broth microdilution method; assay type: functional
[25] = test system: Staphylococcus aureus; assay: Antibacterial activity methicillin resistant Staphylococcus aureus 2658 RCMB assessed as inhibition of bacterial growth by broth microdilution method; assay type: functional
[26] = test system: Staphylococcus aureus; assay: Antibacterial activity against methicillin resistant Staphylococcus aureus assessed as inhibition of bacterial growth; assay type: functional, organism-based
[27] = test system: Staphylococcus aureus; assay: Antibacterial activity against methicillin resistant Staphylococcus aureus incubated for 24 hrs by broth microdilution method; assay type: functional
[28] = test system: Staphylococcus aureus; assay: Antimicrobial activity against methicillin resistant Staphylococcus aureus 1 assessed as inhibition of bacterial growth incubated for 16 to 20 hrs by CLSI protocol based Muller-Hinton broth method; assay type: functional; conditions: time 16-20 hrs
[29] = Cytotoxicity against rat NRK-52E cells assessed as inhibition of cell growth incubated for 24 hrs by CCK-8 assay; assay type: toxicity, cell-based
[30] = test system: Staphylococcus aureus; assay: Antimicrobial activity against methicillin resistant Staphylococcus aureus 3 assessed as inhibition of bacterial growth incubated for 16 to 20 hrs by CLSI protocol based Muller-Hinton broth method; assay type: functional; conditions: time 16-20 hrs
[31] = test system: Staphylococcus aureus; assay: Antimicrobial activity against methicillin resistant Staphylococcus aureus 2 assessed as inhibition of bacterial growth incubated for 16 to 20 hrs by CLSI protocol based Muller-Hinton broth method; assay type: functional; conditions: time 16-20 hrs
[32] = test system: Staphylococcus aureus; assay: Antibacterial activity against methicillin resistant Staphylococcus aureus ATCC 33592 incubated for 24 hrs by Mueller-Hinton broth based assay; assay type: functional
[33] = test system: Staphylococcus aureus; assay: Antibacterial activity against methicillin resistant Staphylococcus aureus assessed as inhibition zone by disc diffusion method; assay type: functional
[34] = test system: Staphylococcus aureus; assay: Antibacterial activity against methicillin resistant Staphylococcus aureus MW2 assessed as inhibition of bacterial growth incubated for 16 to 20 hrs by CLSI protocol based Mueller-Hinton broth method; assay type: functional; conditions: time 16-20 hrs
[35] = test system: Staphylococcus aureus; assay: Antibacterial activity against methicillin resistant Staphylococcus aureus USA300 assessed as inhibition of bacterial growth incubated for 16 to 20 hrs by CLSI protocol based Mueller-Hinton broth method; assay type: functional; conditions: time 16-20 hrs
[36] = Cytotoxicity against human HepG2 cells assessed as inhibition of cell growth incubated for 24 hrs by WST-1 assay; assay type: toxicity, cell-based; conditions: read-out: LD50
[37] = test system: Staphylococcus aureus; assay: Potency index, ratio of vancomycin MIC to test compound MIC for antibacterial activity against methicillin resistant Staphylococcus aureus ATCC 43866 assessed as inhibition of biofilm formation incubated for 18 to 24 hrs by tissue culture plate method; assay type: functional; conditions: time 18-24 hrs
[38] = test system: Staphylococcus aureus; assay: Antibiofilm activity against methicillin resistant Staphylococcus aureus ATCC 43866 assessed as inhibition of biofilm formation incubated for 18 to 24 hrs by tissue culture plate method; assay type: functional; conditions: time 18-24 hrs

O=P(Oc1ccccc1)(Oc1ccccc1)C(Nc1nnc(-c2cccc(Br)n2)o1)c1cccc(F)c1 (configuration not stated)
inhibition zone (IZ) [1]: 17 mm

COc1ccc(-c2nnc(C)o2)cc1
MIC [2]: 25 µg/mL (≈ 131 µM)

C=C(C)C(=O)OCC[N+](C)(C)Cc1nnc(CCCCc2nnc(C[N+](C)(C)CCOC(=O)C(=C)C)o2)o1.[Cl-].[Cl-]
MIC [3]: 0.98 µg/mL

GENTAMICIN
MIC [3]: 100 µg/mL

O=C(Nc1nnc(-c2ccc(F)cc2)o1)c1ccc(Cl)cc1
MIC [4]: 0.64 µg/mL (≈ 2.01 µM) | MIC [5]: 1.28 µg/mL (≈ 4.03 µM) | MIC [6]: 1.28 µg/mL (≈ 4.03 µM)

CN[C@@H]1[C@H](O[C@H]2[C@H](O[C@H]3[C@H](O)[C@@H](O)[C@H](N=C(N)N)[C@@H](O)[C@@H]3N=C(N)N)O[C@@H](C)[C@]2(O)C=O)O[C@@H](CO)[C@H](O)[C@H]1O [STREPTOMYCIN]
MIC [7]: > 100 µg/mL

O=C(/C=C/c1ccc(F)cc1)N1N=C(c2ccncc2)OC1c1cn(-c2ccccc2)nc1-c1ccc(F)cc1 (configuration not stated)
Ratio [8]: 8 | Ratio [9]: 4 | MIC [10]: 6.25 µg/mL (≈ 11.7 µM)

C=C(C)C(=O)OCC[N+](CC)(CC)Cc1nnc(CCCCc2nnc(C[N+](CC)(CC)CCOC(=O)C(=C)C)o2)o1.[Cl-].[Cl-]
MIC [3]: 0.98 µg/mL

O=P(Oc1ccccc1)(Oc1ccccc1)C(Nc1nnc(-c2cccc(Br)n2)o1)c1ccc(F)c(Cl)c1 (configuration not stated)
inhibition zone (IZ) [1]: 17 mm

Cc1nc(-c2ccc(C(C)(C)C)cc2)sc1-c1nnc(N2CC(O)C2)o1
MIC [11]: 4 µg/mL (≈ 10.8 µM) | MIC [12]: 4 µg/mL (≈ 10.8 µM) | MIC [13]: 4 µg/mL (≈ 10.8 µM) | MIC [14]: 4 µg/mL (≈ 10.8 µM) | half-life [15]: 5.5 h | MIC [16]: 4 µg/mL (≈ 10.8 µM) | MIC [17]: 4 µg/mL (≈ 10.8 µM) | MIC [18]: 4 µg/mL (≈ 10.8 µM) | Activity [19]: 41% | MIC [20]: 4 µg/mL (≈ 10.8 µM) | MIC [21]: 4 µg/mL (≈ 10.8 µM) | MIC [22]: 4 µg/mL (≈ 10.8 µM) | MIC [23]: 4 µg/mL (≈ 10.8 µM) | MIC [24]: 4 µg/mL (≈ 10.8 µM) | MIC [25]: 3.12 µg/mL (≈ 8.42 µM)

O=P(Oc1ccccc1)(Oc1ccccc1)C(Nc1nnc(-c2cccc(Br)n2)o1)c1ccc(Cl)c(F)c1 (configuration not stated)
inhibition zone (IZ) [1]: 17 mm

2-((phenylbismuthino)thio)-5-(2-(p-tolyl)thiazol-4-yl)-1,3,4-oxadiazole
MIC [26]: 1.1 µM

O=C(Nc1nnc(-c2ccc(F)cc2)o1)c1cccc(C(F)(F)F)c1
MIC [4]: 0.35 µg/mL (≈ 0.996 µM) | MIC [5]: 0.7 µg/mL (≈ 1.99 µM) | MIC [6]: 0.7 µg/mL (≈ 1.99 µM)

Nc1scc(-c2ccc(F)cc2)c1-c1nnc(S)o1
MIC [27]: 8 µg/mL (≈ 27.3 µM)

O=C(/C=C/c1cccc([N+](=O)[O-])c1)N1N=C(c2ccncc2)OC1c1cn(-c2ccccc2)nc1-c1ccc(F)cc1 (configuration not stated)
MIC [10]: > 50 µg/mL

Cc1nnc(-c2ccc(O)cc2)o1
MIC [2]: 25 µg/mL (≈ 142 µM)

CCn1cc(C(=O)O)c(=O)c2cc(F)c(N3CCN(Cc4nnc(-c5cccc(OC)c5)o4)CC3)cc21
MIC [28]: 0.5 µg/mL (≈ 0.985 µM) | IC50 at 24 h [29]: > 200 µg/mL | MIC [30]: 1 µg/mL (≈ 1.97 µM) | MIC [31]: 0.25 µg/mL (≈ 0.493 µM)

C[C@@H]1C[C@H](C)CN(S(=O)(=O)c2ccc(C(=O)Nc3nnc(-c4ccc(C(F)(F)F)cc4)o3)cc2)C1
MIC [32]: 0.25 µg/mL (≈ 0.492 µM)

O=C(O)c1cn(C2CC2)c2cc(N3CCNCC3)c(F)cc2c1=O [CIPROFLOXACIN]
inhibition zone (IZ) [33]: 22 mm | MIC [7]: > 100 µg/mL

O=C(/C=C/c1cccc(F)c1)N1N=C(c2ccncc2)OC1c1cn(-c2ccccc2)nc1-c1ccc(F)cc1 (configuration not stated)
MIC [10]: 25 µg/mL (≈ 46.9 µM)

COc1cc(OC)cc(-c2nnc(NC(=O)c3ccc(S(=O)(=O)C4COCC4(C)C)cc3)o2)c1 (configuration not stated)
MBC [34]: 16 µg/mL (≈ 32.8 µM) | MBC [35]: 8 µg/mL (≈ 16.4 µM)

O=C(Nc1nnc(-c2ccc3c(c2)CCCC3)o1)C1CC1
MBC [34]: 16 µg/mL (≈ 56.5 µM) | CC50 at 24 h [36]: > 32 µg/mL | MBC [35]: 16 µg/mL (≈ 56.5 µM)

Cn1c(-c2nnc(-c3ccc(Cl)cc3Cl)o2)cc(Br)c1Br
Ratio [37]: 4 | MIC [38]: 0.78 µg/mL (≈ 1.73 µM)

Cc1cc(C(=O)Nc2nnc(-c3ccc(C(F)(F)F)cc3)o2)ccc1S(=O)(=O)N1C[C@H](C)C[C@H](C)C1
MIC [32]: 11 µg/mL (≈ 21.1 µM)

Cc1ccc(OCc2nnco2)c(C(=O)c2cccc(Cl)c2)c1
MIC [7]: 62.5 µg/mL (≈ 190 µM)

CCCCC(=O)Nc1nnc(-c2ccc(Cl)cc2)o1
MBC [34]: 64 µg/mL (≈ 229 µM) | MBC [35]: 8 µg/mL (≈ 28.6 µM)

O=C(/C=C/c1ccc([N+](=O)[O-])cc1)N1N=C(c2ccncc2)OC1c1cn(-c2ccccc2)nc1-c1ccc(F)cc1 (configuration not stated)
MIC [10]: 12.5 µg/mL (≈ 22.3 µM)

O=[N+]([O-])c1ccc(C(Nc2nnc(-c3cccc(Br)n3)o2)P(=O)(Oc2ccccc2)Oc2ccccc2)cc1F (configuration not stated)
inhibition zone (IZ) [1]: 17 mm
